Read-outs that look alike come from different tables or passages of the source.
Tests used:
Type in all cases: in vivo
[1] = tested on: ammonia; experiment: Specific effect of stiripentol on ammonemia (without MSO), ABCAM ammonia assay kit; conditions: stiripentol 300 mg/kg intraperitoneally without methionine sulfoximine, mice
Procedure: Blood is collected under isoflurane anesthesia by cardiac puncture (0.5 to 1.0 mL per mouse) to determine ammonia levels. In the case of brain and blood sampling, the mouse is rapidly sacrificed by decapitation: the brain is removed and frozen in liquid nitrogen. The liver can then be removed and rapidly frozen in liquid nitrogen. Samples are stored at −80° C.
Stiripentol (0.1 mL/10 g) is administered intraperitoneally at different times with respect to MSO. […]
Ammonia is determined colorimetrically using a microplate reader (Dynex, model MRX), and an ABCAM kit (ref AB83360, ammonia assay kit) containing several reagents. This kit enables quantitative enzymatic determination of ammonium present in the samples. During the assay, ammonium is converted to a product that reacts with the OxiRed probe for quantification at 570 nm using a microplate reader. […] The kit, stored at −20° C., includes the following components: • Ammonia assay buffer (25 mL): ready to use, bring to room temperature before use; • OxiRed probe (200 μL): ready to use, warm to 37° ° C. to thaw DMSO; • Developer (1 vial): reconstitute with 220 μL of Ammonia assay buffer; • enzyme Mix (1 vial): reconstitute with 220 μL of Ammonia assay buffer; • Converting Enzyme (1 vial): reconstitute with 220 μl of Ammonia assay buffer, • 10 mM NH4Cl standard (100 μL): ready to use, keep on ice during use. […]

[2] = tested on: methionine sulfoximine (MSO)-induced convulsions
Procedure: (§1) Appl. Neurobiol. 11: 129-139, as follows.
(§2) Male CBA mice (Janvier) weighing between 23 and 27 grams are used after acclimatization for at least 4 days in the animal house (t°=22±2° C.; housing conditions are as follows: SAFE “A04” food; drinking water: tap water; nycthemeral cycle: 12 h/12 h (light: 7 h/19 h-dark: 19 h/7 h)).
On reception, mice are grouped in batches of 8 to 10 in 1500 U cages (floor area 1500 cm2) with bedding and sizzle dry (SDS) enrichment, in line with the ethical recommendations of European Parliament Directive 2010/63/EU (Sep. 22, 2010).
(§3) On test day, mice are weighed, marked and placed in individual cages. At t ═O minutes, MSO (0.1 mL/10 g) is administered intraperitoneally, and the mice are carefully observed for 8 hours.
The parameters evaluated are the general condition of the animals, according to the Irwin grid (Irwin 1968), the number of convulsions, their onset times and mortality. Animals are euthanized as soon as limit points are reached, or at the end of the 8-hour observation period, according to the ANI07 procedure approved by the Ethics Committee.
(§4) Stiripentol (0.1 mL/10 g) is administered intraperitoneally at different times with respect to MSO.
Stiripentol (batch 176) was suspended in 5% (v/v) Tween 80 and 0.9% NaCl.
Results are expressed as the mean value±MSE. The statistical tests used are: • Fisher's exact test for percentages of convulsions and mortality, to determine a significant difference between groups at the 5% threshold, • A one-factor analysis of variance for the assays, to determine whether the pharmacological effect observed is significant at the 5% level (SigmaPlot 3.1 software).
Appl. Neurobiol. 11: 129-139.

[3] = tested on: methionine sulfoximine (MSO)-induced hyperammonemia; conditions: for ammonemia: mean ± MSE
Procedure: as §1, §2, §3, §4
Results are expressed as the mean value±MSE.

[4] = 300 mg/kg stiripentol intraperitoneally 30 minutes prior to 50 mg/kg MSO
[5] = 300 mg/kg stiripentol intraperitoneally just prior to 50 mg/kg MSO
[6] = stiripentol 300 mg/kg intraperitoneally, mice (conclusion)

SMILES: CC(C)(C)C(O)/C=C/c1ccc2c(c1)OCO2 (stereo not drawn) [stiripentol]
- effect on ammonemia compared with the control group [1]: did not alter ammonemia
- ammonemia ([1]; plasma, mean ± MSE): 176 ± 14 µM
- convulsion rate [2, 4]: 45%
- mortality rate [2, 4]: 25%
- convulsion rate [2, 5]: 50%
- mortality rate [2, 5]: 25%
- effect on methionine sulfoximine-induced convulsions and mortality [2, 6]: significantly reduces
- ammonemia ([3]; 300 mg/kg stiripentol 30 minutes prior to 50 mg/kg MSO (FIG. 1)): 448 ± 65 µM
- reduction of hyperammonemia ([3]; 300 mg/kg stiripentol 30 minutes prior to 50 mg/kg MSO, compared with the MSO-only group): 41%
- reduction of hyperammonemia ([3]; 300 mg/kg stiripentol just prior to 50 mg/kg MSO, versus MSO only): 32%
- ammonemia ([3]; 300 mg/kg stiripentol just prior to 50 mg/kg MSO): 417 ± 51 µM
- effect on MSO-induced hyperammonemia [3, 6]: significantly reduces

Source: patent US20240207221A1, “TREATMENT OF HYPERAMMONEMIA” (BIOCODEX, priority 2021, published 2024)
